PubChem BioAssay (NCI)
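In this assay, cells in 96-well plates receive the compound at five concentrations for 48 hours. Endpoints are linearly interpolated between the surrounding concentrations. At the TGI there is no net growth.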

What was measured:
Experiment in all cases: NCI tumour cell line growth inhibition, 48 h
A498 renal = tested on: A498 renal
ACHN renal = tested on: ACHN renal
HL-60(TB) leukemia = tested on: HL-60(TB) leukemia
HS 578T breast = tested on: HS 578T breast
IGROV1 ovarian = tested on: IGROV1 ovarian
LOX IMVI melanoma = tested on: LOX IMVI melanoma
NCI-H460 lung = tested on: NCI-H460 lung
OVCAR-8 ovarian = tested on: OVCAR-8 ovarian
UACC-257 melanoma = tested on: UACC-257 melanoma
SK-MEL-28 melanoma = tested on: SK-MEL-28 melanoma

| SMILES | TGI (A498 renal) [µM] | TGI (ACHN renal) [µM] | TGI (HL-60(TB) leukemia) [µM] | TGI (HS 578T breast) [µM] | TGI (IGROV1 ovarian) [µM] | TGI (LOX IMVI melanoma) [µM] | TGI (NCI-H460 lung) [µM] | TGI (OVCAR-8 ovarian) [µM] | TGI (UACC-257 melanoma) [µM] | TGI (SK-MEL-28 melanoma) [µM] |
| --- | --- | --- | --- | --- | --- | --- | --- | --- | --- | --- |
| O=c1[nH]c(NCCCCCO)nc2nc[nH]c12 | > 100 | > 100 | > 100 | > 100 | > 100 | > 100 | > 100 | > 100 | > 100 |  |
| CC1=NN(C(=O)CC(=O)Nc2cccc(C)c2)C(=O)C1N=Nc1ccc(C(=O)O)cc1 (centres undefined) | > 100 | > 100 | > 100 | > 100 | > 100 | > 100 |  | > 100 | > 100 | > 100 |
| N=C(N)c1ccc(N=Nc2c(O)c(C(=O)Nc3ccccc3)cc3ccccc23)cc1 | > 100 | > 53.6 | 55.1 | > 85.5 | > 74.6 |  | > 75.3 | 34.5 | > 100 | > 100 |
| N#Cc1cc2c(n(C3OC(CO)C(O)C(O)C3O)c1=S)CCC2 (centres undefined) | > 100 | > 100 | > 100 | > 100 | > 100 | > 100 | > 100 | > 100 | > 100 | > 100 |
| CC1=NN(c2cc(Cl)c(S(=O)(=O)O)cc2Cl)C2(C1)C(Cl)C(=O)N2c1nc2ccccc2s1 (centres undefined) | > 100 | > 100 | > 100 | > 100 | > 100 | > 100 | > 100 | > 100 | > 100 | > 100 |
| Clc1ccc(-c2nn3c(COc4ccc(OCc5nnc6sc(-c7ccc(Cl)cc7)nn56)c(Cl)c4)nnc3s2)cc1 | 71.1 | > 100 | 36 | > 100 | 43.9 | 35.6 | > 100 | 75 | > 100 | > 100 |
| C/C(=C\C(=O)O)C(=O)N(C)c1ccccc1I | > 100 | > 100 |  | > 100 |  | > 100 | > 100 | > 100 | > 100 | > 100 |
| CN(C)CCCNC(=O)N/N=C/c1ccccn1 | > 10 | > 10 | > 10 | > 10 | > 10 | > 10 | > 10 | > 10 | > 10 | > 10 |
| COc1cc2ccc(C(C)NCC#N)cc2cc1OC (centres undefined) | > 100 | > 100 | > 100 | > 100 | > 100 | > 100 | > 100 | > 100 | > 100 | > 100 |
| Fc1cccc(C2ON=C(c3ccccc3)N2C23CC4CC(CC(C4)C2)C3)c1 (centres undefined) | > 10 | > 10 | > 10 | > 10 | > 10 | > 10 | > 10 | > 10 | > 10 | > 10 |
| Cc1cc(C)n(C(=CC(=O)C(Cl)Cl)n2nc(C)cc2C)n1 | > 100 | 22.3 | 18.1 | > 100 | 30.4 | 3.67 | 34.1 | 21.3 | 4.97 |  |
| FC(F)(Sc1ncccn1)c1nc2ccccc2o1 | > 100 | > 100 |  |  | > 100 |  | > 100 | > 100 | > 100 | > 100 |
| CC1(O)CC23CC(O)C4(O)C(CC(O)C4(C)C)C(C)(O)C2CCC1C3O (centres undefined) | > 100 | > 100 | > 100 | > 100 | > 100 | > 100 | > 100 | > 100 | > 100 | > 100 |
| COc1cc(-c2cc(OC)c(OC)c3ccc(Br)cc23)c2cc(Br)ccc2c1OC | 44.9 | 51.4 |  | 94.4 | 85.3 | 46.6 | > 100 |  | 92.1 | 45.7 |
| Cc1c(-c2ccccc2)oc(=O)c2ccccc12 |  | 98.2 |  | 43.1 | 46.6 | 40.4 | > 100 | 93 | 30.7 | 37.3 |
| O=c1c2ccccc2n2nnc3ccc(NCCNCCO)c1c32 | 5.52 | 5.89 | 5.24 | 6.36 | 15.6 | 2.6 | 2.83 | 4.74 | 12.3 | 10.9 |
| N#CC(C#N)=C/C=C/c1ccccc1[N+](=O)[O-] | > 10 | > 10 | > 10 | > 10 | > 10 | 7.09 | > 10 | 3.75 | > 10 | 5.47 |
| COc1ccccc1-c1cc(=O)c2cccnc2[nH]1 | > 100 | > 100 | > 100 | > 100 | > 100 | > 100 | > 100 | > 100 | > 100 | > 100 |
| CSC1=C(C)C(/C=N/Nc2ccc([N+](=O)[O-])cc2)=C(C)N(c2ccccc2)S1(=O)=O | > 100 | > 100 | 17.5 |  | > 100 | > 100 | > 100 | > 100 | > 100 | > 100 |
| Nc1ncnc2c1ncn2C1C(O)C=C(CO)C1O (centres undefined) |  |  | > 625 |  | > 625 | > 625 | > 625 | > 625 |  |  |
| CCCCCCCCCCCCCCCCOC[C@H](COC(c1ccccc1)(c1ccccc1)c1ccccc1)O[P+](=S)OC (some centres undefined) | > 100 | > 100 | > 100 | > 100 | > 100 | > 100 | > 100 | > 100 | > 100 |  |
| COc1cc(/C=C2\C(=O)N(c3ccc(Cl)cc3)C(c3ccccc3)S2(=O)=O)cc(OC)c1OC (centres undefined) | > 100 | > 100 | > 100 | > 100 |  | > 100 | > 100 | > 100 | > 100 | > 100 |
| COc1ccc(/C=C2\N=C3N(Cc4ccccc4)C=C(N)N3C2=O)cc1 | > 100 | > 100 | > 100 | 73 | > 100 | > 100 | > 100 | > 100 | > 100 | > 100 |

| SMILES | TGI (A498 renal) [µM] | TGI (ACHN renal) [µM] | TGI (HL-60(TB) leukemia) [µM] | TGI (HS 578T breast) [µM] | TGI (IGROV1 ovarian) [µM] | TGI (LOX IMVI melanoma) [µM] | TGI (NCI-H460 lung) [µM] | TGI (OVCAR-8 ovarian) [µM] | TGI (UACC-257 melanoma) [µM] | TGI (SK-MEL-28 melanoma) [µM] |
| --- | --- | --- | --- | --- | --- | --- | --- | --- | --- | --- |
| O=C(c1ccccc1)C1C(c2ccccc2[N+](=O)[O-])N1C1CCCCC1 (centres undefined) | 30.5 | 3.74 |  | 49.3 | 17.4 | 5.18 | 24.8 | 3.97 | 8.88 | > 57.7 |
| CCOC(=O)/C(=C/c1cn(C(C)=O)c2ccccc12)P(=O)(OC)OC | 52.4 | > 100 | 48.4 | > 100 | > 100 | 79.2 | 79.7 | > 100 | 41.5 | > 100 |
| Clc1ccc(C2=CC(c3ccccc3)N3C(=N[C@H]4CCCC[C@@H]43)N2)cc1 (some centres undefined) | 22.2 | 17.8 | 7.79 | 23.6 | 13.6 | 19.7 | 8.72 | 11.4 | 25.7 | 11 |
| C=C(CCC(=O)N(CCc1c[nH]c2ccccc12)C(=O)c1ccccc1CSCC)C(=O)OC | > 100 | > 100 | > 100 | > 100 | > 100 | > 100 | > 100 | > 100 | > 100 | > 100 |
| CN=C1C=C(/N=C2/C=C(N/C(=C\C#N)C(C)(C)O)OC2(C)C)OC1(C)C | 88.9 | > 100 | 5.83 | > 100 | > 72.5 | > 100 | > 100 | > 47.2 | > 100 | > 100 |
| c1csc(-c2cc(-c3ccsc3)cs2)c1 | > 100 | > 100 | > 100 | > 100 | > 100 | > 100 | > 100 |  | > 100 | > 100 |
| CCOc1ccc(Nc2nc(N)nc(N)c2N=O)cc1 | > 100 | > 100 | > 100 | > 100 | 33.4 | > 100 | > 100 | > 100 | > 100 | > 100 |
| CC(C)(C)[C@H]1NC(=O)CN1C(=O)OCc1ccccc1 | 54.9 | > 100 | > 100 |  | > 100 | > 100 | > 100 | > 100 | > 100 | > 100 |
| CCOC(=O)CCC(NC(=O)c1ccc(NCc2ccc3nc(OC)c(OC)nc3c2)c2ccccc12)C(=O)OCC (centres undefined) | > 100 | > 100 | > 100 |  | > 100 | > 100 | > 100 | > 100 | > 100 | > 100 |
| CCOC(=O)CSc1nc(-c2ccc(Cl)cc2)c(C#N)c(=O)[nH]1 | > 100 | > 100 | 71.9 | > 100 | > 100 |  | > 100 | > 100 | > 100 | > 100 |
| c1ccc(CN2CCC(CNc3ncnc4ccccc34)C2)cc1 (centres undefined) | > 100 | > 100 | > 100 | > 100 | > 100 | > 100 | > 100 | > 100 |  | 85.8 |
| CCOC(=O)C(NC(=O)c1ccccc1)(Nc1ccc(S(=O)(=O)Nc2cc(C)on2)cc1)C(F)(F)F (centres undefined) |  | > 100 | > 100 | > 100 | > 100 | > 100 | > 100 | > 100 | > 10 | > 100 |
| Cc1c(C)c2c(c(N)c1C#N)C(=O)N(NC(=S)Nc1ccccc1)C2=O |  | > 100 | > 100 | > 100 | > 100 |  | > 100 | > 100 | > 100 | > 100 |
| Cc1cc(C)n(C(C)(C(=O)Cc2ccccc2)n2nc(C)cc2C)n1 | > 100 | > 100 | > 100 | > 100 | > 100 | > 100 | > 100 | > 100 |  | > 100 |
| O=C(CN1CCCC1)Nc1ccc2c(c1)C1Oc3ccccc3CC1CO2 (centres undefined) | > 100 |  | > 100 |  | > 100 | 44.5 |  | > 100 | 44.3 |  |
| Nc1ccc2c3c1cccc3c(=O)n1c3ccc(Cc4ccc5c(c4)nc4c6ccc(N)c7cccc(c(=O)n54)c76)cc3nc21 | > 100 | > 100 | > 100 |  | > 100 | > 100 | > 100 | > 100 | > 100 | > 100 |
| O=c1[nH]c2ccccc2c(=O)n1/N=C\c1ccccc1O | > 100 | > 100 | > 100 | > 100 | > 100 | > 100 | > 100 |  | > 100 | > 100 |
| CCOC(=O)CCC(C(=O)OCC)n1nnc2cc(Nc3c(C)[n+]([O-])c4cc(Cl)ccc4[n+]3[O-])ccc21 (centres undefined) | > 100 | > 100 | > 100 | > 100 | > 100 | > 100 | > 100 | > 100 | > 100 |  |
| COC(=O)c1c2c(cc3c1CC1(Cc4cc5c(cc4C1)CCCC5)C3)CCCC2 | > 100 | > 100 | > 100 | > 100 | > 100 | > 100 |  | > 100 | > 100 |  |
| CCOC(=O)CC1C(C(=O)OCC)=Cn2c([nH]c3cccc4cccc2c43)=C1C(=O)OCC (centres undefined) | > 100 | > 100 | > 100 |  | > 100 | > 100 | > 100 | > 100 | > 100 | > 100 |
| O=C(CCCCCCCCC(=O)N1C(=O)CC(=O)N(c2ccc(Cl)cc2)C1=S)N1C(=O)CC(=O)N(c2ccc(Cl)cc2)C1=S | > 100 | > 100 |  | > 100 |  | > 100 | > 100 | > 100 | > 100 | > 100 |
| C[C@]12CC[C@H]3[C@@H](CCC4=C/C(=N/OCCN5CCCCC5)CC[C@@]43C)[C@@H]1CC[C@@H]2O |  | 51.6 | 8.05 |  | > 100 | 57.3 |  | > 100 | 37.3 | 28 |
